# Values quoted from earlier work, collected in US10383918B2, “Compositions in the form of an injectable aqueous solution comprising human glucagon and a statistical co-polyamino acid” (ADOCIA, priority 2016, dated 2019).
# Conditions: lyophilizate reconstituted at acidic pH (pH<3)
substance,measurement,value
H-His-Ser-Gln-Gly-Thr-Phe-Thr-Ser-Asp-Tyr-Ser-Lys-Tyr-Leu-Asp-Ser-Arg-Arg-Ala-Gn-Asp-Phe-Val-Gn-Trp-Leu-Met-Asn-Thr-OH [human glucagon],Time to appearance of human glucagon fibrils after the reconstitution,≤ 24 h
